Assays:
[1] = system: VIOSS: wild pansy (Viola tricolor), field violet (Viola arvensis); assay: Post-emergent Test III, herbicidal activity in wheat and barley; type: in vivo; details: Table 8, 21 d; for GR50 VIOSS: dose for 50 percent growth reduction; for GR50 VIOSS / GR80 VIOSS: probit analysis; for GR80 VIOSS: dose for 80 percent growth reduction; for pest or weed control at 35 g/ha / pest or weed control at 70 g/ha: Viola tricolor, post-emergence, 504 h, post-emergent, read-out: Visual Growth Reduction (%) 21 Days After Application VIOSS; for pest or weed control at 35 g/ha: 35 g ai/ha; for pest or weed control at 70 g/ha: 70 g ai/ha
Method in brief: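 Plants at the second to third true-leaf stage, grown in a greenhouse at about 18/17 °C with a 14 h photoperiod, were sprayed post-emergence at 187 L/ha with the high rate and ½× to 1/16× serial dilutions in an acetone/DMSO/crop-oil/surfactant carrier. Injury was rated visually at 21 d on a 0–100% scale, and GR20–GR90 were derived by probit analysis.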

APESV = assay: Pre-emergent Test III, preemergent activity in wheat and barley; type: in vivo, Apera spica-venti; details: for GR50 APESV / GR80 APESV: 21 days after application, probit analysis; for GR50 APESV: dose to kill or control 50%; for GR80 APESV: dose to kill or control 80%
Protocol: (§1) Pre-emergent Test III. Seeds of test species were planted into square plastic pots (10 cm wide) containing sandy loam soil. After planting, all pots were sub-irrigated 16 h prior to compound application. A weighed amount, determined by the highest rate to be tested, of each test compound was placed in a 25 mL glass vial and was dissolved in 4 mL of a 97:3 v/v mixture of acetone and DMSO to obtain concentrated stock solutions. […] The concentrated stock solutions obtained were diluted with 20 mL of an aqueous mixture containing water and 0.02% w/v (weight/volume) of Triton X-155 to obtain spray solutions containing the highest application rates. Additional application rates were obtained by serial dilution of 12 mL of the high rate solution into a solution containing 2 mL of 97:3 v/v mixture of acetone and DMSO and 10 mL of an aqueous mixture containing water and 0.02% w/v (weight/volume) of Triton X-155 to obtain 1⁄2×, 1⁄4×, 1⁄8× and 1/16× rates of the high rate. Compound requirements are based upon a 12 mL application volume at a rate of 187 liters per hectare (L/ha). Formulated compounds were applied to the soil surface with an overhead Mandel track sprayer equipped with […] nozzles calibrated to deliver 187 L/ha over an application area of 0.503 square meters. Control pots were sprayed in the same manner with the solvent blank. The treated pots and control pots were placed in a greenhouse as described above and watered through surface irrigation. After 21 d, the condition of the test pots as compared with that of the untreated pots was determined visually and scored on a scale of 0 to 100 percent where 0 corresponds to no herbicidal effect and 100 corresponds to plant death or lack of emergence from the soil. By applying the well-accepted probit analysis as described by J. Berkson in Journal of the American Statistical Society, 48, 565 (1953) and by D. Finney in “Probit Analysis” Cambridge University Press (1952), the above data can be used to calculate GR20, GR50, GR80 and GR90 values, which are defined as growth reduction factors that correspond to the effective dose of herbicide required to kill or control 20 percent, 50 percent, 80 percent or 90 percent, respectively, of a target plant.

LAMSS = assay: as above; type: in vivo; details: for GR50 LAMSS / GR80 LAMSS: 21 days after application, probit analysis; for GR50 LAMSS: dose to kill or control 50%; for GR80 LAMSS: dose to kill or control 80%
Protocol: as §1

LOLSS = assay: as above; type: in vivo, Lolium multiflorum, Lolium rigidum; details: for GR50 LOLSS / GR80 LOLSS: 21 days after application, probit analysis; for GR50 LOLSS: dose to kill or control 50%; for GR80 LOLSS: dose to kill or control 80%
Protocol: as §1

SETVI = assay: as above; type: in vivo, Setaria viridis; details: for GR50 SETVI / GR80 SETVI: 21 days after application, probit analysis; for GR50 SETVI: dose to kill or control 50%; for GR80 SETVI: dose to kill or control 80%
Protocol: as §1

HORSS = assay: as above; type: in vivo, Hordeum vulgare; details: for GR20 HORSS: 21 days after application, dose to kill or control 20%, probit analysis
Protocol: as §1

TRZSS = assay: as above; type: in vivo, Triticum aestivum; details: for GR20 TRZSS: 21 days after application, dose to kill or control 20%, probit analysis
Protocol: as §1

## Nc1cc(-c2cc(F)c(Br)cc2F)nc(C(=O)O)c1Cl [Compound 3]
[1]
  GR50 VIOSS: 4 g ai/ha
  GR80 VIOSS: 7 g ai/ha
  pest or weed control at 35 g/ha: 95 to 100%
  pest or weed control at 70 g/ha: 95 to 100%

## COC(=O)c1nc(-c2ccc(Br)c(F)c2)nc(N)c1OC [Compound 171, Methyl 6-amino-2-(4-bromo-3-fluorophenyl)-5-methoxypyrimidine-4-carboxylate]
[1]
  GR50 VIOSS: 5 g ai/ha
  GR80 VIOSS: 10 g ai/ha
  pest or weed control at 35 g/ha: 95 to 100%
  pest or weed control at 70 g/ha: 95 to 100%

## Nc1c(F)c(-c2ccc(Br)c(F)c2F)nc(C(=O)O)c1Cl [Compound 147]
APESV; 35 g ai/ha
  Visual Growth Reduction (%) 21 Days After Application, APESV: C (75-84)
APESV; 70 g ai/ha
  Visual Growth Reduction (%) 21 Days After Application, APESV: B (85-94)
APESV
  GR50 APESV: 19 g ai/ha
  GR80 APESV: 33 g ai/ha
LAMSS; 35 g ai/ha
  Visual Growth Reduction (%) 21 Days After Application, LAMSS: A (95-100)
LAMSS; 70 g ai/ha
  Visual Growth Reduction (%) 21 Days After Application, LAMSS: A (95-100)
LAMSS
  GR50 LAMSS: 1 g ai/ha
  GR80 LAMSS: 5 g ai/ha
LOLSS; 35 g ai/ha
  Visual Growth Reduction (%) 21 Days After Application, LOLSS: G (0-29)
LOLSS; 70 g ai/ha
  Visual Growth Reduction (%) 21 Days After Application, LOLSS: G (0-29)
LOLSS
  GR50 LOLSS: 52 g ai/ha
  GR80 LOLSS: >70 g ai/ha
SETVI; 35 g ai/ha
  Visual Growth Reduction (%) 21 Days After Application, SETVI: E (45-59)
SETVI; 70 g ai/ha
  Visual Growth Reduction (%) 21 Days After Application, SETVI: C (75-84)
SETVI
  GR50 SETVI: 17 g ai/ha
  GR80 SETVI: >70 g ai/ha
HORSS; 35 g ai/ha
  Visual Growth Reduction (%) 21 Days After Application, HORSS: G (0-29)
HORSS; 70 g ai/ha
  Visual Growth Reduction (%) 21 Days After Application, HORSS: G (0-29)
HORSS
  GR20 HORSS: 70 g ai/ha
TRZSS; 35 g ai/ha
  Visual Growth Reduction (%) 21 Days After Application, TRZSS: F (30-44)
TRZSS; 70 g ai/ha
  Visual Growth Reduction (%) 21 Days After Application, TRZSS: F (30-44)
TRZSS
  GR20 TRZSS: 23 g ai/ha

## Nc1c(F)c(-c2cc(F)c(Br)cc2F)nc(C(=O)O)c1Cl [Compound 42, 4-amino-6-(4-bromo-2,5-difluorophenyl)-3-chloro-5-fluoropicolinic acid]
APESV; 35 g ai/ha
  Visual Growth Reduction (%) 21 Days After Application, APESV: B (85-94)
APESV; 70 g ai/ha
  Visual Growth Reduction (%) 21 Days After Application, APESV: A (95-100)
APESV
  GR50 APESV: 12 g ai/ha
  GR80 APESV: 27 g ai/ha
LAMSS; 35 g ai/ha
  Visual Growth Reduction (%) 21 Days After Application, LAMSS: A (95-100)
LAMSS; 70 g ai/ha
  Visual Growth Reduction (%) 21 Days After Application, LAMSS: A (95-100)
LAMSS
  GR50 LAMSS: 1 g ai/ha
  GR80 LAMSS: 1 g ai/ha
LOLSS; 35 g ai/ha
  Visual Growth Reduction (%) 21 Days After Application, LOLSS: G (0-29)
LOLSS; 70 g ai/ha
  Visual Growth Reduction (%) 21 Days After Application, LOLSS: G (0-29)
LOLSS
  GR50 LOLSS: >70 g ai/ha
  GR80 LOLSS: >70 g ai/ha
SETVI; 35 g ai/ha
  Visual Growth Reduction (%) 21 Days After Application, SETVI: E (45-59)
SETVI; 70 g ai/ha
  Visual Growth Reduction (%) 21 Days After Application, SETVI: D (60-74)
SETVI
  GR50 SETVI: 36 g ai/ha
  GR80 SETVI: >70 g ai/ha
HORSS; 35 g ai/ha
  Visual Growth Reduction (%) 21 Days After Application, HORSS: F (30-44)
HORSS; 70 g ai/ha
  Visual Growth Reduction (%) 21 Days After Application, HORSS: E (45-59)
HORSS
  GR20 HORSS: 11 g ai/ha
TRZSS; 35 g ai/ha
  Visual Growth Reduction (%) 21 Days After Application, TRZSS: E (45-59)
TRZSS; 70 g ai/ha
  Visual Growth Reduction (%) 21 Days After Application, TRZSS: E (45-59)
TRZSS
  GR20 TRZSS: 5 g ai/ha

## Nc1cc(-c2ccc(I)cc2F)nc(C(=O)O)c1Cl [Compound 124]
[1]
  GR50 VIOSS: 24 g ai/ha
  GR80 VIOSS: 49 g ai/ha
  pest or weed control at 35 g/ha: 60 to 74%
  pest or weed control at 70 g/ha: 95 to 100%

## Nc1c(Cl)c(C(=O)O)nc(-c2ccc(Br)c(F)c2)c1Cl [Compound 43, 4-Amino-6-(4-bromo-3-fluorophenyl)-3,5-dichloropicolinic acid]
[1]
  GR50 VIOSS: 37 g ai/ha
  GR80 VIOSS: >140 g ai/ha
  pest or weed control at 35 g/ha: 45 to 59%
  pest or weed control at 70 g/ha: 60 to 74%

## COc1c(N)nc(-c2ccc(I)c(F)c2)nc1C(=O)O [Compound 37, 6-Amino-2-(3-fluoro-4-iodophenyl)-5-methoxypyrimidine-4-carboxylic acid]
[1]
  GR50 VIOSS: 12 g ai/ha
  GR80 VIOSS: 35 g ai/ha
  pest or weed control at 35 g/ha: 75 to 84%
  pest or weed control at 70 g/ha: 85 to 94%
